Experimental data: patent US12383692B2, “Systems and methods for synthesis of nitric oxide” (The General Hospital Corporation, priority 2014, dated 2025)

Legend:
Assay type in all cases: in vivo
[1] = system: anesthetized lamb with acute pulmonary hypertension; assay: Continuous NO generation with respiratory system 100 (NO generator 102) in anesthetized lambs with U46619-induced pulmonary hypertension
From the text: (§1) Animal studies were approved by the Institutional Animal Care and Use Committee of Massachusetts General Hospital (Boston, MA). Eight lambs (New England Ovis, Dover, NH) weighing 32±2 kg were studied. General anesthesia was induced with 5% inhaled isoflurane (1-chloro-2,2,2-trifluoroethyldifluromethyl ether, Baxter, Deerfield, IL) in oxygen delivered via a mask and then maintained with 1-4% isoflurane in 50% oxygen during surgery. After tracheal intubation, the lambs were instrumented with indwelling carotid artery pulmonary artery catheters. All hemodynamic measurements were performed in anesthetized lambs ventilated with a mechanical ventilator (model 7200, Puritan Bennett, Pleasanton, CA) at a tidal volume of […] and rate of 12-15 breaths/min.
(§2) To induce pulmonary hypertension, a potent pulmonary vasoconstrictor U46619 (Cayman Chemical, Ann Arbor, MI), the analog of the endoperoxide prostaglandin H2, was infused intravenously at a rate of 0.8-0.9 μg/kg/min to increase pulmonary arterial pressure (PAP) to 30 mmHg. The mean arterial pressure and PAP were continuously monitored using a Gould 6600 amplifier system (Gould Electronics, Inc., Eastlake, OH). Pulmonary capillary wedge pressure, heart rate, and cardiac output were intermittently measured at baseline, during U46619 infusion, and before and after inhalation of NO generated using either the respiratory system 10, the respiratory system 100, or NO delivered and diluted at the same level from a compressed gas cylinder. Cardiac output was assessed by thermal dilution as the average of three measurements after an intravenous bolus injection of 10 mL of ice-cold saline solution. Pulmonary vascular resistance index (PVRI), as well as cardiac index (CI), were calculated using standard formulae. The gas cylinder contained 500 ppm NO diluted in nitrogen.
The respiratory system 100 was tested with an anesthetized lamb as the patient 11. A baseline (BL) was generated then the NO generator 102 of the respiratory system 100 was triggered to continuously spark (i.e., generate NO) after U46619 was administered for 30 minutes. The electrodes 36 were fabricated from iridium-platinum. Once triggered, the controller 33 was configured to spark the electrodes 36 for 4 minutes using the following settings: B=35, N=25, P=240 μs; and H=100 μs, which produced approximately 40 ppm of NO, and then the controller 33 stopped the NO generator 102. The test was performed when 21% oxygen was supplied in the inspiratory line 18, when 50% oxygen was supplied in the inspiratory line 18, and when NO was supplied to the anesthetized lamb diluted from a compressed gas cylinder.
Also, the reduction in PAP and PVRI for the NO produced by the NO generator 102 was similar to the reduction in PAP and PVRI for the NO supplied by the gas cylinder. […]

[2] = system: anesthetized lamb with acute pulmonary hypertension; assay: Intermittent NO generation with respiratory system 100 (NO generator 102) in anesthetized lambs with U46619-induced pulmonary hypertension; settings: 4 minutes
From the text: as §1, §2
The respiratory system 100 was tested with an anesthetized lamb as the patient 11. A baseline (BL) was generated then the NO generator 102 of the respiratory system 100 was triggered to intermittently spark (i.e., generate NO) after U46619 was administered for 30 minutes. The electrodes 36 were fabricated from iridium-platinum. The controller 33 was configured to spark the electrodes 36 only during the first 0.8 seconds of inspiration for 4 minutes using the following settings: B=35, N=25, P=240 μs; and H=100 μs and then the controller 33 stopped the NO generator 102, The test was performed when 21% oxygen was supplied in the inspiratory line 18, when 50% oxygen was supplied in the inspiratory line 18, and when NO was supplied to the anesthetized lamb from a gas cylinder.
Also, the reduction in PAP and PVRI for the NO produced by the NO generator 102 was similar to the reduction in PAP and PVRI for NO supplied and diluted from the compressed gas cylinder. […]

[3] = system: anesthetized lamb with acute pulmonary hypertension due to U46619 infusion; assay: Continuous NO generation with respiratory system 10 (NO generator 14) in anesthetized lambs with U46619-induced pulmonary hypertension
From the text: as §1, §2
The respiratory system 10 was tested with an anesthetized lamb as the patient 11. A baseline (BL) was generated then the NO generator 14 of the respiratory system 10 was triggered to continuously spark (i.e., generate NO) after […] was administered for 30 minutes. The NO was pumped at 5 L/min into the inspiratory line 18. The electrodes 36 were fabricated from iridium-platinum. Once triggered, the controller 33 was configured to spark the electrodes 36 for 4 minutes using the following settings: B=35, N=25, P=240 μs; and H=100 μs, which produced approximately 40 ppm of NO, and then the controller 33 stopped the NO generator 14. The test was performed when 21% oxygen was supplied to the inlet 24 of the NO generator 14, when 50% oxygen was supplied to the inlet 24 of the NO generator 14, and compared with NO supplied at the same concentration to the anesthetized lamb from a gas cylinder. […]

[4] = NO produced by NO generator 102, continuous sparking, 4 minutes
[5] = inhaled NO approximately 40 ppm continuously produced inline by NO generator 102 for 4 minutes, breathing 21% and 50% oxygen
[6] = NO produced by NO generator 102, intermittent sparking
[7] = NO produced by NO generator 102 only during first 0.8 seconds of inspiration, breathing 21% and 50% oxygen
[8] = NO produced by NO generator 14, continuous sparking, 4 minutes
[9] = inhaled NO approximately 40 ppm continuously produced by NO generator 14 for 4 minutes, breathing 21% and 50% oxygen

`[N]=O` [NO, nitric oxide] was tested, and the “reduction in PAP compared with NO supplied by the gas cylinder” value [1, 4] was “similar”, the “reduction in PVRI compared with NO supplied by the gas cylinder” value [1, 4] was “similar” and the “mean pulmonary artery pressure (PAP)” value [1, 5] was “rapidly reduced”. For the same compound, the “pulmonary vascular resistance index (PVRI)” value [1, 5] was “rapidly reduced”, the “reduction in PAP compared with NO supplied and diluted from the compressed gas cylinder” value [2, 6] was “similar” and the “reduction in PVRI compared with NO supplied and diluted from the compressed gas cylinder” value [2, 6] was “similar”. The “mean pulmonary artery pressure (PAP)” value [2, 7] was “rapidly reduced”, the “pulmonary vascular resistance index (PVRI)” value [2, 7] was “rapidly reduced” and the “reduction in PAP compared with NO supplied at the same level by dilution from the gas cylinder” value [3, 8] was “similar”. For the same compound, the “reduction in PVRI compared with NO supplied at the same level by dilution from the gas cylinder” value [3, 8] was “similar”, the “mean pulmonary artery pressure (PAP)” value [3, 9] was “rapidly reduced” and the “pulmonary vascular resistance index (PVRI)” value [3, 9] was “rapidly reduced”.
